Reference: article PMC12838644, “Dihydrotanshinone as a Natural Product-Based CYP17A1 Lyase Inhibitor for Hyperandrogenic Disorders” (Biomolecules, 2026)
Like-named read-outs stand apart in the source and are kept apart here.

Experiments:
HEK-293T cells = assay: alamarBlue cytotoxicity assay, HEK-293T; format: cell-based; settings: Homo sapiens, read-out: HEK-293T (IC50)
Procedure: RWPE-1 cells (ATCC: CRL-36O7) were cultured in keratinocyte serum-free media (K-SFM) supplemented with 0.05 mg/mL bovine pituitary extract and 5 ng/mL epidermal growth factor, and 1% penicillin (100 U/mL; Thermo Fisher Scientific, Waltham, MA, USA), and streptomycin (100 μg/mL; GIBCO). […] Passage numbers remained below 30 as per standard procedures. All cell lines were validated and characterized before use to ensure their authenticity and reliability. Routine mycoplasma testing was conducted to confirm that the cells were free from contamination. Additionally, key functional and morphological characteristics were assessed to verify their alignment with previously reported profiles.
The alamarBlue® assay (Thermo Fisher Scientific, Waltham, MA USA) was conducted as previously described. RWPE-1 cells, HEK-293 cells, and NCI-H295R cells were plated in 96-well plates at 10,000 cells per well and incubated overnight at 37 °C with 5% CO2. […] Cells were incubated for an additional 24 h. Cell viability was measured using the alamarBlue® assay. Post-incubation, 0.05 mg/mL alamarBlue® solution in phosphate-buffered saline (PBS) was added to each well. The plates were incubated in the dark at 37 °C with 5% CO2 for 4 h, and fluorescence was measured at an excitation wavelength of 540 nm and an emission wavelength of 590 nm. Cell viability was calculated relative to the control sample treated with DMSO. All experiments were conducted in triplicate.

CYP21A2 = target: T1, CYP21A2 (Homo sapiens, UniProt P08686); assay: CYP21A2 activity assay in transiently transfected HEK-293T cells; format: cell-based; settings: for inhibition at 10 µM: read-out: % Inhibition CYP21A2
T1 construct: expressed in transfected cells; host or cells: HEK293 / HEK-293T
T1 sequence (P08686 1-495): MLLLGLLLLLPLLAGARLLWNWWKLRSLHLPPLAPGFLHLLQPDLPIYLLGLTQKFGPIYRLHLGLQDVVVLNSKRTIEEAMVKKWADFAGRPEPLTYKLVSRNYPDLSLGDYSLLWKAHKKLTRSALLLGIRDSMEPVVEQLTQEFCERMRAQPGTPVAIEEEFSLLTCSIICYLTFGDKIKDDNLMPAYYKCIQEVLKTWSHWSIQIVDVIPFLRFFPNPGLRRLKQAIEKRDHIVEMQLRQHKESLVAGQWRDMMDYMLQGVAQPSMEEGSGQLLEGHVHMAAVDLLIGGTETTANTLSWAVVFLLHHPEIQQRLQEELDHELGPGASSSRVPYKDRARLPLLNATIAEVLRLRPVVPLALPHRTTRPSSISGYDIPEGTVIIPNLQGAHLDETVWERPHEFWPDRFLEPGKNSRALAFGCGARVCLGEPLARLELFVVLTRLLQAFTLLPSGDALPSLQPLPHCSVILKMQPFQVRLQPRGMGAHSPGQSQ
Procedure: Transient transfections were performed using the CYP21A2 WT vector as described previously. HEK293 cells were seeded in six-well plates (3 × 10^5 cells/well). After 24 h, the growth medium was replaced, and cells were transfected using Lipofectamine 2000 (Thermo Fisher Scientific, Bedford, MA, USA) with 12.5 µg of plasmid (plasmid concentration: 1068 µg/mL). Twenty-four hours after transfection, transfected cells were replated in 24-well plates (1.5 × 10^5 cells/well) to ensure homogeneity of the cell population across the wells. Six hours after transfection, 2 mL of fresh medium was replaced, and the cells were cultured for 48 h. Cell growth was examined. […] DMSO was added to the negative control, and 10 µM abiraterone was added to the positive control, and the cells were incubated for 4 h. Functional assays were initiated by adding 1 µM unlabeled progesterone (using 10,000 cpm of [^14C]-progesterone as a tracer). After incubation at 37 °C for 1 h, the culture medium and cells were harvested. Steroids were extracted from the culture medium with ethyl acetate and isooctane (1:1 volume ratio), dried, and dissolved in dichloromethane. Steroids were separated by thin-layer chromatography (TLC), placed on a phosphor screen, and visualized using a Typhoon PhosphorImager FLA-7000 (GE Healthcare Bio-Sciences AB, Uppsala, Sweden). Image intensity was measured and quantified using ImageQuant TL v8 (Cytiva, Marlborough, MA, USA). The CYP21A2 enzyme activity was expressed as relative steroid conversion. Steroids were quantified as a percentage of radioactivity incorporated into […] to the total radioactivity measured in the whole sample and compared between the WT and variants. Cells were collected with trypsin and washed with 1× PBS to quantify the amount of protein. Results were analyzed from three technical replicates. To ensure a similar amount of CYP21A2 in each reaction, a Western blot analysis was performed to normalize the enzyme activity with the relative CYP21A2 expression.

[1] = cytotoxicity, alamarBlue, 24 h incubation, mean ± SD, three experiments
[2] = 10 µM (SM extract 10 µg/mL), transfected HEK-293T cells, calculated as 100% − % residual activity

With `Cc1coc2c1C(=O)C(=O)c1c-2ccc2c(C)cccc12` [TAI, tanshinone I] the IC50 (HEK-293T cells; [1]) was 1080 ± 260 nM, the “% Inhibition CYP21A2” value (CYP21A2; [2]) was “no meaningful inhibition” and the inhibition at 10 µM (CYP21A2; [2]) was less than 1%.
`Cc1cccc2c3c(ccc12)C1=C(C(=O)C3=O)[C@@H](C)CO1` [DT, dihydrotanshinone I] was tested, and the IC50 (HEK-293T cells; 24 h) was 1310 ± 470 nM, the “Residual CYP21A2 activity” value (CYP21A2; % of DMSO control, 10 µM, transfected HEK-293T cells) was 85% and the inhibition at 10 µM (CYP21A2; HEK-293T) was 14.9%.
In the case of `Cc1coc2c1C(=O)C(=O)c1c-2ccc2c1CCCC2(C)C` [TAII, tanshinone IIA], the IC50 (HEK-293T cells; [1]) is reported as 2260 ± 1920 nM, the “% Inhibition CYP21A2” value (CYP21A2; [2]) is reported as “no meaningful inhibition” and the inhibition at 10 µM (CYP21A2; [2]) is reported as less than 1%.
